# According to US11591341B2 (ALIGOS THERAPEUTICS, INC., priority 2019, dated 2023):
# System: HBV
# Test: HBV-DNA Antiviral Assay Using HepG2.2.15 Cells (extracellular HBV DNA by qPCR)
# Type: cell-based
# Conditions: Hepatitis B virus, 168 h; HBV DNA inhibition, HepG2.2.15 cells, extracellular HBV DNA by qPCR on day 7; read-out: EC50
# Description: The following assay procedure describes the HBV antiviral assay. This assay uses HepG2.2.15 cells, which have been transfected with HBV genome, and extracellular HBV DNA quantification as endpoint. Cell viability is assessed in parallel by measuring the intracellular ATP content using the CellTiter-Glo© reagent from Promega.
# On day 0, HepG2.2.15 cells were seeded in 96-well plates at a density of 6.0×10^4 cells/well (0.1 mL/well). The cells were incubated at 37° C. and 5% CO2.
# On day 1, the test articles were diluted and added to cell culture wells (8 concentrations, 4-fold dilution, in duplicate). GLS4, Tenofovir and Sorafenib were used as reference compounds. 100 μL of culture medium containing the compounds was added to the plate, and the final total volume per well was 200 μL. The final concentration of DMSO in the culture medium was 0.5%. The plate map of compound treatment is shown below. The cells were cultured at 37° C. and 5% CO2 for 3 days.
# On day 4, the plates were refreshed with culture media with compounds.
# On day 7, cell viability was assessed using the CellTiter-Glo, and the cell culture supernatants were collected for determination of HBV DNA by qPCR.
# Extracellular DNA was isolated with QIAamp 96 DNA Blood Kit per the manufacturer's manual. HBV DNA was then quantified by qPCR with HBV specific primers and probes as specified in Table 1 using the FastStart Universal MasterMix from Roche on an ABI-7900HT. The PCR cycle program consisted of 95° C. for 10 min, followed by 40 cycles at 95° C. for 15 sec and 60° C. for 1 min.
# A DNA standard was prepared by dilution of the pAAV2 HBV1.3 plasmid with concentrations ranging from 10 to 1×10^7 copies/μL and used to generate a standard curve by plotting Ct value vs. the concentration of the HBV plasmid DNA standard. The quantity of HBV DNA in each sample was determined by interpolating from the standard curve.
# Cell viability was calculated as follows: % Cell viability=(luminescence value of test sample−average luminescence value of blank)/(average luminescence value of 0.5% DMSO control−average luminescence of blank)×100%. HBV DNA inhibition was calculated as follows: 100-(HBV DNA copy number of test sample−HBV DNA copy number of ETV)/HBV DNA copy number of 0.5% DMSO control−HBV DNA copy number of ETV)×100%. The CC50, EC50 and EC90 values were determined by dose-response curves fitted by GraphPad Prism using “log (agonist) vs. response—Variable slope”.
row,Compound,EC50 [nM]
1,"CN1CCCn2c(c3n(c2=O)CCN(C(=O)Nc2ccc(F)c(Cl)c2)C3)C1=O [Example 2, N-(3-chloro-4-fluorophenyl)-11-methyl-6,12-dioxo-1,3,4,8,9,10,11,12-octahydro-2H,6H-pyrazino[1′,2′:3,4]imidazo[1,5-a][1,4]diazepine-2-carboxamide]",500 to 5000
2,"C[C@@H]1Cn2c(c(C(=O)N[C@H](C)c3ccccc3)n(-c3ccc(-n4cccn4)cc3)c2=O)CN1C(=O)c1ccc(Br)c(Cl)c1 (mixture of isomers) [Example 466, (6RS)-7-(4-bromo-3-chloro-benzoyl)-6-methyl-3-oxo-N-[(1R)-1-phenylethyl]-2-(4-pyrazol-1-ylphenyl)-6,8-dihydro-5H-imidazo[1,5-a]pyrazine-1-carboxamide]",500 to 5000
3,"Cc1cccnc1-c1ccccc1CNC(=O)c1c2n(c(=O)n1-c1ccc(OC3CC3)cc1)CCN(C(=O)c1ccc(Br)c(Cl)c1)C2 [Example 464, 7-(4-bromo-3-chloro-benzoyl)-2-[4-(cyclopropoxy)phenyl]-N-[[2-(3-methyl-2-pyridyl)phenyl]methyl]-3-oxo-6,8-dihydro-5H-imidazo[1,5-a]pyrazine-1-carboxamide]",500 to 5000
4,"COc1ccc(CNC(=O)c2c3n(c(=O)n2-c2ccccc2)CCN(C(=O)c2ccc(Br)c(Cl)c2)C3)cc1 [Example 13, 7-(4-bromo-3-chlorobenzoyl)-N-[(4-methoxyphenyl)methyl]-3-oxo-2-phenyl-2H,3H,5H,6H,7H,8H-imidazo[1,5-a]pyrazine-1-carboxamide]",500 to 5000
5,"COc1ccc(CNC(=O)c2c3n(c(=O)n2-c2ccccc2)CCN(C(=O)Nc2ccc(F)c(Cl)c2)C3)cc1 [Example 11, N^7-(3-chloro-4-fluorophenyl)-N1-[(4-methoxyphenyl)methyl]-3-oxo-2-phenyl-2H,3H,5H,6H,7H,8H-imidazo[1,5-a]pyrazine-1,7-dicarboxamide]",100 to 500
6,"C[C@@H](NC(=O)c1c2n(c(=O)n1-c1ccc(OC3CC3)cc1)CCN(C(=O)c1ccc(Br)c(Cl)c1)C2)c1ccccc1-n1cncn1 (stereo in doubt) [Example 472, 7-(4-bromo-3-chloro-benozyl)-2-[4-(cyclopropoxy)phenyl]-3-oxo-N-[rac-(1R)-1-[2-(1,2,4-triazol-1-yl)phenyl]ethyl]-6,8-dihydro-5H-imidazo[1,5-a]pyrazine-1-carboxamide]",500 to 5000
7,"COc1ccc(CN2CCn3c(c4n(c3=O)CCN(C(=O)c3ccc(Br)cc3)C4)C2=O)cc1 [Example 20, 12-(4-bromobenzoyl)-4-[(4-methoxyphenyl)methyl]-4,7,9,12-tetrazatricyclo[7.4.0.0^2,7]tridec-1-ene-3,8-dione]",> 5000
8,"COc1ccc(CNC(=O)c2c3n(c(=O)n2Cc2ccccc2)CCN(C(=O)c2ccc(Br)c(Cl)c2)C3)cc1 [Example 14, 2-benzyl-7-(4-bromo-3-chlorobenzoyl)-N-[(4-methoxyphenyl)methyl]-3-oxo-2H,3H,5H,6H,7H,8H-imidazo[1,5-a]pyrazine-1-carboxamide]",> 5000
9,"C[C@@H](NC(=O)c1c2n(c(=O)n1-c1ccc(-n3cccn3)cc1)C[C@H](C)N(C(=O)c1ccc(Br)c(Cl)c1)C2)c1ccccc1 (mixture of isomers) [Example 467, (6SR)-7-(4-bromo-3-chloro-benzoyl)-6-methyl-3-oxo-N-[(1R)-1-phenylethyl]-2-(4-pyrazol-1-ylphenyl)-6,8-dihydro-5H-imidazo[1,5-a]pyrazine-1-carboxamide]",100 to 500
10,"O=C(Nc1ccc(F)c(Cl)c1)N1CCn2c(c3n(c2=O)CCN(Cc2ccccc2)C3=O)C1 [Example 16, 12-benzyl-N-(3-chloro-4-fluoro-phenyl)-8,13-dioxo-4,7,9,12-tetrazatricyclo[7.4.0.0^2,7]tridec-1-ene-4-carboxamide]",500 to 5000
11,"COc1ccc(CN2CCn3c(c4n(c3=O)CCN(C(=O)Nc3ccc(F)c(Cl)c3)C4)C2=O)cc1 [Example 17, N-(3-chloro-4-fluoro-phenyl)-12-[(4-methoxyphenyl)methyl]-8,13-dioxo-4,7,9,12-tetrazatricyclo[7.4.0.0^2,7]tridec-1-ene-4-carboxamide]",> 5000
12,"C[C@H]1Cn2c(c(C(=O)NCc3ccccc3-c3ncccn3)n(-c3ccc(-n4cccn4)cc3)c2=O)CN1C(=O)c1ccc(Br)c(Cl)c1 (racemic) [Example 469, rac-(6S)-7-(4-bromo-3-chloro-benzoyl)-6-methyl-3-oxo-2-(4-pyrazol-1-ylphenyl)-N-[(2-pyrimidin-2-ylphenyl)methyl]-6,8-dihydro-5H-imidazo[1,5-a]pyrazine-1-carboxamide]",< 100
13,"CN1CCCn2c(c3n(c2=O)CCN(C(=O)c2ccc(Br)c(Cl)c2)C3)C1=O [Example 8, 2-(4-bromo-3-chlorobenzoyl)-11-methyl-1,2,3,4,8,9,10,11-octahydro-6H,12H-pyrazino[1′,2′:3,4]imidazo[1,5-a][1,4]diazepine-6,12-dione]",> 5000
14,"COc1ccc(CN2CCn3c(c4n(c3=O)CCN(C(=O)c3ccc(Br)c(F)c3)C4)C2=O)cc1 [Example 18, 12-(4-bromo-3-fluoro-benzoyl)-4-[(4-methoxyphenyl)methyl]-4,7,9,12-tetrazatricyclo[7.4.0.0^2,7]tridec-1-ene-3,8-dione]",> 5000
15,"C[C@@H]1Cn2c(c(C(=O)NCc3ccccc3-c3ncccn3)n(-c3ccc(-n4cccn4)cc3)c2=O)CN1C(=O)c1ccc(Br)c(C#N)c1 (stereo in doubt) [Example 470, rac-(6R)-7-(4-bromo-3-cyano-benzoyl)-6-methyl-3-oxo-2-(4-pyrazol-1-ylphenyl)-N-[(2-pyrimidinn-2-ylphenyl)methyl]-6,8-dihydro-5H-imidazo[1,5-a]yrazine-1-carboxamide]",100 to 500
16,"O=C1NCCCn2c1c1n(c2=O)CCN(C(=O)c2ccc(Br)c(F)c2)C1 [Example 6, 2-(4-bromo-3-fluorobenzoyl)-1,2,3,4,8,9,10,11-octahydro-6H,12H-pyrazino[1′,2′:3,4]imidazo[1,5-a][1,4]diazepine-6,12-dione]",> 5000
17,"C[C@H]1Cn2c(c(C(=O)NCc3ccccc3-c3ncccn3)n(-c3ccc(-n4cccn4)cc3)c2=O)CN1C(=O)c1ccc(Br)c(C#N)c1 (stereo in doubt) [Example 471, rac-(6S)-7-(4-bromo-3-cyano-benzoyl)-6-methyl-3-oxo-2-(4-pyrazol-1-ylphenyl)-N-[(2-pyrimidin-2-ylphenyl)methyl]-6,8-dihydro-5H-imidazo[1,5-a]pyrazine-1-carboxamide]",500 to 5000
18,"CC(C)NC(=O)c1c2n(c(=O)n1-c1ccccc1)CCN(C(=O)c1ccc(Br)c(Cl)c1)C2 [Example 12, 7-(4-bromo-3-chlorobenzoyl)-3-oxo-2-phenyl-N-(propan-2-yl)-2H,3H,5H,6H,7H,8H-imidazo[1,5-a]pyrazine-1-carboxamide]",> 5000

# Same assay, conditions: Hepatitis B virus, HepG2.2.15, 168 h
row,Compound,EC50 [nM]
1,"O=C(Nc1ccc(F)c(Cl)c1)N1CCn2c(c3n(c2=O)CCCN(Cc2ccccc2)C3=O)C1 [Example 3, 11-benzyl-N-(3-chloro-4-fluorophenyl)-6,12-dioxo-1,3,4,8,9,10,11,12-octahydro-2H,6H-pyrazino[1′,2′:3,4]imidazo[1,5-a][1,4]diazepine-2-carboxamide]",100 to 500
